Test results from patent publication US10669238B2, “Irreversible bruton's tyrosine kinase inhibitor” (HEFEI INSTITUTES OF PHYSICAL SCIENCE, CHINESE ACADEMY OF …, priority 2016, dated 2020).

Tested on: phosphorylation of tyrosine Y223 on Btk
Experiment: Effects on BTK Y223 and downstream signaling pathway proteins in cells (anti-IgM stimulation)
Format: cell-based, human
Conditions: Compound 1 in MEC-2, Pfeiffer, Ramos, TMD8, U2932; Compound 35 in MEC-1; 4 hours, then anti-IgM 10 mins
Excerpt: By assaying a number of cellular biochemical and functional endpoints, the properties of the compounds were further characterized. […] In this experiment, PC132765 (purchased from Shanghai Haoyuan Chemexpress Co., Ltd.), CGI11746 (purchased from Shanghai Haoyuan Chemexpress Co., Ltd.) and Compound 6 (prepared herein) were used as control (see FIGS. 2a-2f).
Effects of the compounds on phosphorylation of BTKY223, BTKY551, PLCγ1Y783, PLCγ2Y759, PLCγ2Y1217, P—NF-κB P65, P-AKT Ser473, Erk Thr202/Tyr204 and the like were determined (FIGS. 2a-2f).

## C=CC(=O)Nc1cc(Nc2cc(-c3cccc(NC(=O)c4ccc(C(C)(C)C)cc4)c3C)cn(C)c2=O)ccc1C(=O)N1CCOCC1 [Compound 1, N-(3-(5-((3-acrylamide-4-(morpholin-4-carbonyl)phenyl)amino)-1-methyl-6-oxo-1,6-dihydropyridin-3-yl)-2-methylphenyl)-4-(tert-butyl)benzamide]
  phosphorylation of tyrosine Y223 on Btk: selectively and significantly inhibit phosphorylation of tyrosine Y223 on Btk
